Five molecules from US10214526B2, “Substituted pyrazolo[1,5-a]-pyridine-3-carboxamides and use thereof” (Bayer Pharma Aktiengesellschaft, priority 2015, dated 2019) can be followed below.

Molecules are shown by their SMILES. Where a name gives a salt, the structure may show the parent alone.

For the experiment, the system named is recombinant guanylate cyclase reporter cell line. Nature of the experiment: Effect on a recombinant guanylate cyclase reporter cell line. It counts as cell-based. The following applies: in some cases mean values from individual determinations. The procedure: B-2. Effect on a Recombinant Guanylate Cyclase Reporter Cell Line
The cellular activity of the compounds according to the invention is determined using a recombinant guanylate cyclase reporter cell line, as described in F. Wunder et al., Anal. Biochem. 339, 104-112 (2005).
Representative MEC values (MEC=minimum effective concentration) for the compounds of the invention are shown in the table below (in some cases as mean values from individual determinations): […]
For the molecule `Cc1cc(OCc2c(F)cccc2F)n2nc(C)c(C(=O)NC(C)(CO)c3nnn(C(F)F)n3)c2c1` (racemic) [Example 2, rac-7-[(2,6-Difluorobenzyl)oxy]-N-{2-[2-(difluoromethyl)-2H-tetrazol-5-yl]-1-hydroxypropan-2-yl}-2,5-dimethylpyrazolo[1,5-a]pyridine-3-carboxamide], the “MEC (minimum effective concentration)” value amounted to 0.10 µM.
The value for `Cc1cc(OCc2c(F)cccc2F)n2nc(C)c(C(=O)NCC(C)(N)CC[Si](C)(C)C)c2c1` (single isomer, unassigned; enantiomer a) [Example 4, ent-N-[2-Amino-2-methyl-4-(trimethylsilyl)butyl]-7-[(2,6-difluorobenzyl)oxy]-2,5-dimethylpyrazolo[1,5-a]pyridine-3-carboxamide (Enantiomer A)] was 0.53 µM; that for `[2H]C([2H])([2H])CC(C)(N)CNC(=O)c1c(C)nn2c(OCc3c(F)cccc3F)cc(C)cc12` (single isomer, unassigned; enantiomer a) [Example 3, ent-N-[2-Amino-2-methyl(4,4,4,4-^2H3)butyl]-7-[(2,6-difluorobenzyl)oxy]-2,5-dimethylpyrazolo[1,5-a]pyridine-3-carboxamide (Enantiomer A)] was 0.30 µM.
On to `Cc1cc(OCc2c(F)cccc2F)n2nc(C)c(C(=O)NCC(C)(N)CC[Si](C)(C)C)c2c1` (single isomer, unassigned; enantiomer b) [Example 5, ent-N-[2-Amino-2-methyl-4-(trimethylsilyl)butyl]-7-[(2,6-difluorobenzyl)oxy]-2,5-dimethylpyrazolo[1,5-a]pyridine-3-carboxamide (Enantiomer B)], for which the “MEC (minimum effective concentration)” value worked out at 0.30 µM.
Take `Cc1cc(OCc2c(F)cccc2F)n2nc(C)c(C(=O)N[C@@](C)(CO)c3nnc(C)s3)c2c1` [Example 1, 7-[(2,6-Difluorobenzyl)oxy]-N-[(2S)-1-hydroxy-2-(5-methyl-1,3,4-thiadiazol-2-yl)propan-2-yl]-2,5-dimethylpyrazolo[1,5-a]pyridine-3-carboxamide trifluoroacetate]: the “MEC (minimum effective concentration)” value came out at 0.20 µM.
